This note sets out measurements from PubChem BioAssay AID493130 (Broad Institute, 2011).

Records with an inconclusive call do not appear. Activity calls are given as the source filed them.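 The calls were made as follows: active = signal-lowering compounds whose fitted half-maximal concentration is at most ten times their highest tested dose; inconclusive = flat fit between -30 and -70%, or poor fit; inactive = flat within 30%, signal rising, or potency beyond limit.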 A value given as a limit tells only on which side of the number the result lay.

The first experiment has as its target POS-1 (Caenorhabditis elegans) binding to mex-3 RNA. Briefly: inhibitors of POS-1/mex-3 RNA binding, dose response, counter-screen for MEX-5 RNA-binding inhibitor project, biochemical, fluorescence polarization, cherry-picked samples, set 2 (AID 493130).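 Also: POS-1 as maltose binding protein fusion made in E. coli with FITC RNA.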 Conditions: POS-1/mex-3 RNA fluorescence polarization, 1 h. (Counterscreens check selectivity or assay interference.)
Consider `O=C1NC2=C(C(=O)CCC2)C(c2ccccc2[N+](=O)[O-])N1` (stereo unspecified), for which the AC50 is > 10 µM (inactive). Take `O=[N+]([O-])c1ccc(NCc2ccccc2)c2nonc12`: the AC50 is 0.434 µM. `CCOc1ccc(N=Nc2c(=O)[nH]n3c(=O)cc(C)[nH]c23)cc1`: the AC50 was > 10 µM (inactive). In the case of `O=C(N/N=C/c1c(O)n(Cc2ccccc2)c(=O)[nH]c1=O)c1ccccc1O`, the AC50 is 4.84 µM. For `Brc1ccc(C2=CC(c3cccs3)n3ncnc3N2)cc1` (stereo unspecified), the concentration at half-maximal activity (AC50) was 1.4 µM.

Staying with this experiment, now noted: POS-1/mex-3 RNA fluorescence polarization, 1 h; at 10 µM (top of the series).
Regarding `CN1/C(=C\C=C(/C#N)C(=O)Nc2ccccc2F)C(C)(C)c2ccccc21`, the “activity change, negative = inhibition” value was “inactive”. The same measure, in the same setting: the result for `CC(=O)NN1C(=O)/C(=C2/Sc3ccccc3N2C)SC1=S` reads “inactive”.

Regarding `CCCCN(CCCC)CCNC(=O)CNC(=O)c1cccs1`, the “activity change, negative = inhibition” value was “inactive”. Same read-out and setting: the result for `O=C(Cc1csc(N2CCOCC2)n1)N/N=C/c1ccc(O)c(O)c1O` reads “inactive”.

Regarding `COc1ccc(CCNc2c3ccccc3nc3ccccc23)cc1OC`, the “activity change, negative = inhibition” value was “inactive”. Same read-out and setting: with `CC(C)c1cc[n+](-c2nc([O-])sc2C=O)cc1` the entry was “inactive”; with `COCCN1CCC(CNCc2cn(-c3cc(C)ccc3C)nc2-c2ccccc2)C1` (stereo unspecified), “inactive”; with `Nc1c(C(=O)Nc2ccccc2F)sc2nc(-c3cccnc3)ccc12`, “inactive”. For the compound `O=C(O)c1ccc(NC2=C(Cl)C(=O)c3ccccc3C2=O)cc1`, the “activity change, negative = inhibition” value was “inactive”. On the same count and under the same terms, the result for `COC(=O)c1ccccc1-c1ccc(C(c2c(C)[nH][nH]c2=O)c2c(C)[nH][nH]c2=O)o1` reads “inactive”; that for `Cc1cc(C)c2ccc(C(=O)O)nc2c1O`, “inactive”; that for `Cc1cc(C)cc(N2C(=O)NC(=O)/C(=C/c3cccn3-c3ccc(Cl)cc3)C2=O)c1`, “inactive”. The same measure, in the same setting: the result for `CN1CCc2nc3sc(C(=O)NC(C)(C)C)c(N)c3cc2C1` reads “inactive”; that for `CCOC(=O)c1cnc(SCC(=O)NNC(=O)c2ccco2)nc1N`, “inactive”; that for `Cc1cc(C(=O)N/N=C/c2ccc(-c3ccc([N+](=O)[O-])cc3C)o2)n[nH]1`, “inactive”. Same read-out and setting: with `Cc1ccc(NC(=O)CCC(=O)NNC(=S)Nc2ccc(F)cc2)c(C)c1` the entry was “inactive”. In the case of `COC1=C(Nc2ccc(O)cc2)C(=O)c2ccccc2C1=O`, the “activity change, negative = inhibition” value is “inactive”. Still for that read-out and setting: the result for `Cc1nc2c3ccccc3nc(NNC(=O)CCC(=O)N3CCC(C)CC3)n2n1` reads “inactive”.

Take `Cc1cccc2c(N=Nc3ccccc3)c(O)[nH]c12`: the “activity change, negative = inhibition” value is “inactive”. Still for that read-out and setting: with `COc1ccc(N(C(=O)CCl)C(C)(C(=O)Nc2c(C)cccc2C)c2ccccn2)cc1` (stereo unspecified) the entry was “inactive”. Still for that read-out and setting: the result for `Cc1ccc(C(=O)N/C(=C\c2ccc(-c3ccc([N+](=O)[O-])cc3)o2)C(=O)NC2CCS(=O)(=O)C2)cc1` (stereo unspecified) reads “inactive”.

The AC50 is the concentration at which the activity in the assay is half-maximal.
